Test results taken from patent US20110027858A1, “Method of Modifying Fungal Morphology” (University of Akron, priority 2009, published 2011).

Tests used:
T. reesei [1] = assay: Effects of several surfactants on morphology (flocculation / pellet formation) of T. reesei; type: cell-based, Trichoderma reesei RUT C30; details: for Effective in changing morphology?: compared with 0.5 g/L and 1 g/L surfactant concentrations
Text: The effects of several surfactants on the morphology of T. reesei were studied. TABLE 1 summarizes the observations of the effects of several surfactants regarding to flocculation or formation of pellets in T. reesei. […] All surfactants listed in TABLE 1 were compared with 0.5 g/L and 1 g/L surfactant concentrations.

T. reesei [2] = assay: Shake flask growth of T. reesei with Triton X-100 (Example 6): morphology, growth, enzyme activity; type: cell-based, Trichoderma reesei RUT C30
Protocol: The effect of growing a fungus in a growth medium containing Triton X-100 was tested. A culture was grown on a growth medium containing (g/L): (NH4)2SO4 1.4, KH2PO4 2, MgSO4.7H2O 0.3, CaCl2.2H2O 0.4, urea 0.3, peptone 1.0, Tween-80 0.2, FeSO4.7H2O 0.005, MnSO4.H2O 0.0016, ZnSO4.7H2O 0.0014, CoCl2 0.002, and lactose 10.0. Initially the unadjusted pH was 5.5 after autoclaving.
Test cultures were grown in 50 mL volume in 250 mL flasks at 28° C. in a Que Orbital shaker (Model 4703, Parkersburg, W.Va., USA) at 250 rpm without pH control, initially at 5.5, for 7 days. Triton X-100 was tested at the following concentrations (g/L): 0.1, 0.3, 0.6, 0.8, 1.0, 1.5.
Cultures were followed for 7 days and visually checked for bulk morphology. Periodic monitoring was done aseptically by collecting a 2 mL representative sample every 24 hrs to measure cell concentration, enzyme activity, sugar concentration, and residual surfactant amounts.

Row | Substance | Description: tendency toward cell flocculation with increasing surfactant concentration (T. reesei [1]; 0.5 g/L and 1 g/L surfactant, flocculation is correlated with pellet formation) | Effective in changing morphology? (T. reesei [1]) | Size of generally uniform pellets formed (T. reesei [1]) | global average doubling time (T. reesei [2]; across tested Triton concentrations, following the lag phase) | average increase in the enzyme activity (T. reesei [2]; additive concentration in excess of 0.1 g/L) | lag compared to the surfactant free system (T. reesei [2]; concentrations above 0.1 g/L) | concentration producing "pellet" growth (T. reesei [2]; tested at 0.1-1.5 g/L, 7 days, 28° C., 250 rpm)
1 | polyoxyethylene sorbitan monolaurate [TWEEN ® 20] | shows tendencies toward increased | YES | – | – | – | – | –
2 | 4-(1,1,3,3-tetramethylbutyl)phenyl-polyethylene glycol [Triton X-100] | – | YES | uniform ~1 mm pellets | 9.1 ± 1.8 h | 73±12% | one-day | greater than 0.3 g/L
